PubChem BioAssay AID2060884 (Molecular Pharmacology Branch, DTP, NCI, 2025)

System: NCI-H929 complex spheroids, viability % test/control
Assay: Anticancer human tumor NCI-H929 cell line growth inhibition [RAS];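 further: compound exposure lasted seven days before viability was read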
Conditions: for IC50: curve of first compound; for viability, T/C: stronger effect = lower value
Source text: RAS pathway inhibitors in Combinations in Complex Spheroids
A high-throughput screen of multi-cell type tumor spheroids was designed to identify active combinations of RAS pathway inhibitors and targeted small molecules. Complex spheroids include a stromal component modeled by human endothelial cells (HUVEC) and fibroblasts modeled by human mesenchymal stem cells (MSCs). The concentration ranges selected for each drug and investigational agent were based upon clinically achievable concentrations if the clinical Cmax of the agent was known.
Compounds. The drugs and investigational agents: abemaciclib (NSC768073), cobimetinib (NSC768068), divarasib (GDC6063, NSC841802), docetaxel (NSC628503), GDC-1971 (RLY-1971, NSC841576), gemcitabine (NSC613327), inavolisib (NSC800729), ipatasertib (NSC767898), KB-0742 (NSC834161), MRTX-1133 (NSC836407), osimertinib (NSC779217), RMC-4630 (NSC839698), RMC-6236 (NSC851965), RMC-6291 (NSC852671), Ro-3306 (NSC812927), sapanisertib (NSC764658), SN-38 (NSC673596), staurosporine (NSC755774), SY5609 (NSC837396), and tovorafenib (DAY101, NSC766906), were obtained from the National Cancer Institute (NCI) Developmental Therapeutics Program Chemical Repository. The FDA-approved anticancer drug set is available from the NCI Developmental Therapeutics Program. […] The stock solutions were prepared in dimethyl sulfoxide (DMSO, Sigma-Aldrich, St. Louis, MO, cat. D2650) at 800-fold the tested concentration and stored at -70 degrees C prior to their use. All drugs and investigational agents were tested over a range starting from a high concentration at or near the clinical Cmax and decreasing in half-log increments. If the clinical Cmax for an agent had not been determined, the highest concentration tested was 10 microM.
Cell Culture. All cells were maintained in an incubator at 37 degrees C and 5% CO2 with 95% humidity. The PDC lines were cultured according to standard operating procedures established by the NCI PDMR. All PDCs were thawed and cultured in Matrigel-coated flasks prepared with a working solution of 1X Ham's F-12 nutrient mix, without supplementation (Invitrogen, Waltham, MA, cat. 11765054), 100 U/mL penicillin-streptomycin (Invitrogen, cat. 15140122), and 2.5% Matrigel (Corning Inc., Corning, NY, cat. 354248) for the first three passages. The 362531-283-R-J2-PDC and 782815-120-R-J1-PDC lines were cultured in 6C/Colon 1B media, which includes advanced DMEM/F-12 (Thermo Fisher Scientific, cat. 12634028), 10 mM HEPES (Thermo Fisher Scientific, cat. 15630080), 1X GlutaMAX supplement (Thermo Fisher Scientific, cat. 35050061), 0.1 mg/mL primocin (InvivoGen, San Diego, CA, cat. ant-pm-2), 10% defined fetal bovine serum, heat inactivated (HyClone Laboratories Inc., Logan, UT, cat. SH30070.03HI), 50% L-WRN conditioned media (ATCC, cat. CRL-3276), 1.25 mM N-Acetyl-L-cysteine (Sigma-Aldrich, cat. A9165), 10 mM nicotinamide (Sigma-Aldrich, cat. N0636), 1X B-27 supplement (Thermo Fisher Scientific, cat. 17504044), 1X N-2 supplement (Thermo Fisher Scientific, cat. 17502048), 50 ng/mL human EGF (Thermo Fisher Scientific, cat. PHG0311), and 10 microM Y-27632 dihydrochloride (Tocris Bioscience, cat. 1254). The K12877-001-R-J1-PDC line was cultured in 6I media, which includes all 6C/Colon 1B media plus 10 ng/mL human FGF-10 (PeproTech, cat. 100-26), 1 ng/mL human FGF-2 (PeproTech, cat. 100-18B), 1 µM prostaglandin E2 (Tocris Bioscience, cat. 2296), […] hydrocortisone (Sigma-Aldrich, cat. H4001), and […] bovine insulin (Sigma-Aldrich, cat. I6634). The K86415-001-R-J1-PDC line was cultured in 6D media, which includes all 6C/Colon 1B media components minus the L-WRN conditioned media. The 485176-168-R4-J1-PDC was cultured in PANC media, which includes all 6C/Colon 1B media plus 100 ng/mL human FGF-10 (PeproTech, cat. 100-26), 500 nM SB-431542 (Selleckchem, cat. S1067), and 10 nM gastrin (Tocris Bioscience, cat. 3006). […]

Compound CCC(CC)c1cc(NC2CCC(N)C2)n2nccc2n1 (configuration not stated) + C=CC(=O)N1CCN(c2nc(OCC3CCCN3C)nc3c(F)c(-c4nc(N)cc(C)c4C(F)(F)F)c(Cl)cc23)C(C)C1 has an IC50 (second compound 0.00316 µM) of 1720 nM, an IC50 (second compound 0.01 µM) of 1770 nM and an IC50 (second compound 0.0316 µM) of 1750 nM. For the same compound, the IC50 (second compound 0.1 µM) was 1760 nM, the IC50 (second compound 0.316 µM) was 1770 nM and the IC50 (second compound 1 µM) was 1780 nM. The viability, T/C (second compound 0.00316 µM, first compound 0.0316 µM) was 100%, the viability, T/C (second compound 0.00316 µM, first compound 0.1 µM) was 91.7% and the viability, T/C (second compound 0.00316 µM, first compound 0.316 µM) was 93.5%. The viability, T/C (second compound 0.00316 µM, first compound 1 µM) was 93.2%, the viability, T/C (second compound 0.00316 µM, first compound 3.16 µM) was 1.09% and the viability, T/C (second compound 0.00316 µM, first compound 10 µM) was 0.82%. The viability, T/C (second compound 0.01 µM, first compound 0.0316 µM) was 96.3%, the viability, T/C (second compound 0.01 µM, first compound 0.1 µM) was 98.3% and the viability, T/C (second compound 0.01 µM, first compound 0.316 µM) was 97.9%. For the same compound, the viability, T/C (second compound 0.01 µM, first compound 1 µM) was 97.9%, the viability, T/C (second compound 0.01 µM, first compound 3.16 µM) was 1.58% and the viability, T/C (second compound 0.01 µM, first compound 10 µM) was 0.56%. The viability, T/C (second compound 0.0316 µM, first compound 0.0316 µM) was 93.3%, the viability, T/C (second compound 0.0316 µM, first compound 0.1 µM) was 95.7% and the viability, T/C (second compound 0.0316 µM, first compound 0.316 µM) was 97.3%. It also gave a viability, T/C (second compound 0.0316 µM, first compound 1 µM) of 100%, a viability, T/C (second compound 0.0316 µM, first compound 3.16 µM) of 1.12% and a viability, T/C (second compound 0.0316 µM, first compound 10 µM) of 0.24%. For the same compound, the viability, T/C (second compound 0.1 µM, first compound 0.0316 µM) was 95.9%, the viability, T/C (second compound 0.1 µM, first compound 0.1 µM) was 96.1% and the viability, T/C (second compound 0.1 µM, first compound 0.316 µM) was 99.4%. For the same compound, the viability, T/C (second compound 0.1 µM, first compound 1 µM) was 99.6%, the viability, T/C (second compound 0.1 µM, first compound 3.16 µM) was 0.2% and the viability, T/C (second compound 0.1 µM, first compound 10 µM) was 0.59%. For the same compound, the viability, T/C (second compound 0.316 µM, first compound 0.0316 µM) was 98.5%, the viability, T/C (second compound 0.316 µM, first compound 0.1 µM) was 99.4% and the viability, T/C (second compound 0.316 µM, first compound 0.316 µM) was 94.7%. The viability, T/C (second compound 0.316 µM, first compound 1 µM) was 101%, the viability, T/C (second compound 0.316 µM, first compound 3.16 µM) was 1% and the viability, T/C (second compound 0.316 µM, first compound 10 µM) was 0.48%. The viability, T/C (second compound 1 µM, first compound 0.0316 µM) was 106%, the viability, T/C (second compound 1 µM, first compound 0.1 µM) was 104% and the viability, T/C (second compound 1 µM, first compound 0.316 µM) was 97%. For the same compound, the viability, T/C (second compound 1 µM, first compound 1 µM) was 99.2%, the viability, T/C (second compound 1 µM, first compound 3.16 µM) was 0.64% and the viability, T/C (second compound 1 µM, first compound 10 µM) was 0.11%.
